Measurements taken from paper PMC6886798, “Expression of myeloid Src-family kinases is associated with poor prognosis in AML and influences Flt3-ITD kinase inhibitor acquired resistance” (PLoS ONE, 2019).
One block for each compound: values may come before it.

Experiments:
Lyn T338F = molecular target: T1, Lyn T338F (Homo sapiens, UniProt P07948, T319F); assay: Z'-LYTE in vitro kinase assay; assay type: biochemical; details: Tyr-2 peptide 1.0 μM, read-out: ATP Km
T1 construct: Recombinant near-full-length kinases, consisting of the SH2, SH3 and kinase domains plus the negative regulatory tail; made in house; host or cells: E. coli BL21Star (DE3), co-expressed with Csk and PTP1B
T1 sequence (P07948 63-512 T319F limits assumed): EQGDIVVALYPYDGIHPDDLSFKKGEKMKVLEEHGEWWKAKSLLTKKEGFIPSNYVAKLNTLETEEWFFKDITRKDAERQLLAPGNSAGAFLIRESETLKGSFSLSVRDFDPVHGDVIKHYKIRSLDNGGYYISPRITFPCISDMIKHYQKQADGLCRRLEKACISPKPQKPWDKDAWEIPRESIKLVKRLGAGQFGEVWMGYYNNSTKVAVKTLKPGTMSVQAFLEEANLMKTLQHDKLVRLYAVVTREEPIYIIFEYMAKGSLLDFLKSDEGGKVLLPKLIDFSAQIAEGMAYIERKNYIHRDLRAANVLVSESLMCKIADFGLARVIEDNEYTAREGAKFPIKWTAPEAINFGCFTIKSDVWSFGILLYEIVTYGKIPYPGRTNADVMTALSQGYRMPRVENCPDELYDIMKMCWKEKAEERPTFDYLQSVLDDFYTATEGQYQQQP

Hck T338L = molecular target: T2, Hck T338L (Homo sapiens, UniProt P08631, T333L); assay: Z'-LYTE in vitro kinase assay; assay type: biochemical; details: Hck T338L; Tyr-2 peptide 1.0 μM; read-out: ATP Km
T2 construct: Recombinant near-full-length kinases, consisting of the SH2, SH3 and kinase domains plus the negative regulatory tail; made in house; host or cells: E. coli BL21Star (DE3), co-expressed with Csk and PTP1B
T2 sequence (P08631 78-526 T333L limits assumed): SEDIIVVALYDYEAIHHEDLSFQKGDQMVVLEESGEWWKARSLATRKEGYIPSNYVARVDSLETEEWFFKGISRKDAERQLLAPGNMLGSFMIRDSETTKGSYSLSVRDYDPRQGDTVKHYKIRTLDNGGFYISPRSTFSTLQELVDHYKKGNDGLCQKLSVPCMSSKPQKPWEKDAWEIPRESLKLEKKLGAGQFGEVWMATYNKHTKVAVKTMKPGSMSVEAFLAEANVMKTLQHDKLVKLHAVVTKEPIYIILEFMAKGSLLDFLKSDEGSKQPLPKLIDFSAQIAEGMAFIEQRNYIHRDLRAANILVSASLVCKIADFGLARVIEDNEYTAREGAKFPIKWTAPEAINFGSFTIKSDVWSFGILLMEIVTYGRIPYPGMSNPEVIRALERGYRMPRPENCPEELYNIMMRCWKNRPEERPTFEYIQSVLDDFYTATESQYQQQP

Hck wild-type = molecular target: T3, Hck wild-type (Homo sapiens, UniProt P08631); assay: Z'-LYTE in vitro kinase assay; assay type: biochemical; details: Tyr-2 peptide 1.0 μM, read-out: ATP Km
T3 construct: Recombinant near-full-length kinases, consisting of the SH2, SH3 and kinase domains plus the negative regulatory tail; made in house; host or cells: E. coli BL21Star (DE3), co-expressed with Csk and PTP1B
T3 sequence (P08631 78-526 limits assumed): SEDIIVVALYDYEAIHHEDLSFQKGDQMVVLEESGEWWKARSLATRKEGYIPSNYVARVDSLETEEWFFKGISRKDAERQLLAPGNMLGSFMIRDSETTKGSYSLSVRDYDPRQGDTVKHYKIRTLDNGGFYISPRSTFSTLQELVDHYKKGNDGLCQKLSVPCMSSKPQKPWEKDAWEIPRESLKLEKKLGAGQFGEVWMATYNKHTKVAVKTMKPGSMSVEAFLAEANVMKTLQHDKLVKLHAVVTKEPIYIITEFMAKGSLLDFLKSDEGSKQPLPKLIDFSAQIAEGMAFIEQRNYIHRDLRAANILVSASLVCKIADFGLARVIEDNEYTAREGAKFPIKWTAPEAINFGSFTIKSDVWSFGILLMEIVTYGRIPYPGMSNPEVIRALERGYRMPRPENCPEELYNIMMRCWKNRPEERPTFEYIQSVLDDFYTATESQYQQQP

Lyn wild-type = molecular target: T4, Lyn wild-type (Homo sapiens, UniProt P07948); assay: Z'-LYTE in vitro kinase assay; assay type: biochemical; details: Tyr-2 peptide 1.0 μM, read-out: ATP Km
T4 construct: Recombinant near-full-length kinases, consisting of the SH2, SH3 and kinase domains plus the negative regulatory tail; made in house; host or cells: E. coli BL21Star (DE3), co-expressed with Csk and PTP1B
T4 sequence (P07948 63-512 limits assumed): as the sequence (P07948 63-512 T319F limits assumed) above, with F257T counted along it

Fgr T338L = molecular target: T5, Fgr T338L (Homo sapiens, UniProt P09769, T334L); assay: Z'-LYTE in vitro kinase assay; assay type: biochemical; details: Tyr-2 peptide 1.0 μM, read-out: ATP Km
T5 construct: Recombinant near-full-length kinases, consisting of the SH2, SH3 and kinase domains plus the negative regulatory tail; made in house; host or cells: E. coli BL21Star (DE3), co-expressed with Csk and PTP1B
Protocol: (§3) Assays were performed in quadruplicate in 384-well low volume, non-binding, black polystyrene microplates (Corning) according to the manufacturer’s instructions. Briefly, this assay measures phosphorylation of the Tyr2 peptide substrate which is tagged with coumarin and fluorescein on its N- and C-termini, respectively, to form a FRET pair. After the kinase reaction, a development step involves site-specific proteolytic cleavage of the unphosphorylated but not the phosphorylated peptide. […] Kinase reactions were run in 50 mM HEPES, pH 7.5, 10 mM MgCl2, 1 mM EGTA, and 0.01% BRIJ-35 (buffer supplied by the manufacturer). […] Following incubation for 1 h at ambient temperature, reactions were quenched by addition of the development protease, and coumarin and fluorescein fluorescence were measured 1 h later on a Molecular Devices SpectraMax M5 plate reader. […] For experiments with inhibitors, compounds were preincubated with kinase for 30 min prior to initiation of the reaction by the addition of ATP.

Hck T338F = molecular target: T6, Hck T338F (Homo sapiens, UniProt P08631, T333F); assay: Z'-LYTE in vitro kinase assay; assay type: biochemical; details: Hck T338F; Tyr-2 peptide 1.0 μM; read-out: ATP Km
T6 construct: Recombinant near-full-length kinases, consisting of the SH2, SH3 and kinase domains plus the negative regulatory tail; made in house; host or cells: E. coli BL21Star (DE3), co-expressed with Csk and PTP1B
T6 sequence (P08631 78-526 T333F limits assumed): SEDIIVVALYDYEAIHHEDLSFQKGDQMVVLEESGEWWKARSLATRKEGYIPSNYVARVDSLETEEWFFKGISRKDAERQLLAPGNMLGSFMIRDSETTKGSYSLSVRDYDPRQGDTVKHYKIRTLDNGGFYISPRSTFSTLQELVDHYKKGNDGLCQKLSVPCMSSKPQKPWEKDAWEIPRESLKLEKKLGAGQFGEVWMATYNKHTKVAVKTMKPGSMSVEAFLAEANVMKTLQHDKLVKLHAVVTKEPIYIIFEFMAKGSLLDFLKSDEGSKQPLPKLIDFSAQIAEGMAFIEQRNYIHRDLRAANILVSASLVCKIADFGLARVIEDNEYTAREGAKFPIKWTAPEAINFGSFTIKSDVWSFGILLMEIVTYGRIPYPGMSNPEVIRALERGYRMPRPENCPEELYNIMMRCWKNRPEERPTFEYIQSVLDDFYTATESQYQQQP

Lyn T338L = molecular target: T7, Lyn T338L (Homo sapiens, UniProt P07948, T319L); assay: Z'-LYTE in vitro kinase assay; assay type: biochemical; details: Tyr-2 peptide 1.0 μM, read-out: ATP Km
T7 construct: Recombinant near-full-length kinases, consisting of the SH2, SH3 and kinase domains plus the negative regulatory tail; made in house; host or cells: E. coli BL21Star (DE3), co-expressed with Csk and PTP1B
T7 sequence (P07948 63-512 T319L limits assumed): as the sequence (P07948 63-512 T319F limits assumed) above, with F257L counted along it

Fgr wild-type = molecular target: T8, Fgr wild-type (Homo sapiens, UniProt P09769); assay: Z'-LYTE in vitro kinase assay; assay type: biochemical; details: Tyr-2 peptide 1.0 μM, read-out: ATP Km
T8 construct: Recombinant near-full-length kinases, consisting of the SH2, SH3 and kinase domains plus the negative regulatory tail; made in house; host or cells: E. coli BL21Star (DE3), co-expressed with Csk and PTP1B
Protocol: as §3

Fgr T338F = molecular target: T9, Fgr T338F (Homo sapiens, UniProt P09769, T334F); assay: Z'-LYTE in vitro kinase assay; assay type: biochemical; details: Fgr T338F; Tyr-2 peptide 1.0 μM; read-out: ATP Km
T9 construct: Recombinant near-full-length kinases, consisting of the SH2, SH3 and kinase domains plus the negative regulatory tail; made in house; host or cells: E. coli BL21Star (DE3), co-expressed with Csk and PTP1B
Protocol: as §3

Fgr T338M = molecular target: T10, Fgr T338M (Homo sapiens, UniProt P09769, T334M); assay: Z'-LYTE in vitro kinase assay; assay type: biochemical; details: Fgr T338M; Tyr-2 peptide 1.0 μM; read-out: ATP Km
T10 construct: Recombinant near-full-length kinases, consisting of the SH2, SH3 and kinase domains plus the negative regulatory tail; made in house; host or cells: E. coli BL21Star (DE3), co-expressed with Csk and PTP1B
Protocol: as §3

Lyn T338M = molecular target: T11, Lyn T338M (Homo sapiens, UniProt P07948, T319M); assay: Z'-LYTE in vitro kinase assay; assay type: biochemical; details: Tyr-2 peptide 1.0 μM, read-out: ATP Km
T11 construct: Recombinant near-full-length kinases, consisting of the SH2, SH3 and kinase domains plus the negative regulatory tail; made in house; host or cells: E. coli BL21Star (DE3), co-expressed with Csk and PTP1B
T11 sequence (P07948 63-512 T319M limits assumed): as the sequence (P07948 63-512 T319F limits assumed) above, with F257M counted along it

Hck T338M = molecular target: T12, Hck T338M (Homo sapiens, UniProt P08631, T333M); assay: Z'-LYTE in vitro kinase assay; assay type: biochemical; details: Hck T338M; Tyr-2 peptide 1.0 μM; read-out: ATP Km
T12 construct: Recombinant near-full-length kinases, consisting of the SH2, SH3 and kinase domains plus the negative regulatory tail; made in house; host or cells: E. coli BL21Star (DE3), co-expressed with Csk and PTP1B
T12 sequence (P08631 78-526 T333M limits assumed): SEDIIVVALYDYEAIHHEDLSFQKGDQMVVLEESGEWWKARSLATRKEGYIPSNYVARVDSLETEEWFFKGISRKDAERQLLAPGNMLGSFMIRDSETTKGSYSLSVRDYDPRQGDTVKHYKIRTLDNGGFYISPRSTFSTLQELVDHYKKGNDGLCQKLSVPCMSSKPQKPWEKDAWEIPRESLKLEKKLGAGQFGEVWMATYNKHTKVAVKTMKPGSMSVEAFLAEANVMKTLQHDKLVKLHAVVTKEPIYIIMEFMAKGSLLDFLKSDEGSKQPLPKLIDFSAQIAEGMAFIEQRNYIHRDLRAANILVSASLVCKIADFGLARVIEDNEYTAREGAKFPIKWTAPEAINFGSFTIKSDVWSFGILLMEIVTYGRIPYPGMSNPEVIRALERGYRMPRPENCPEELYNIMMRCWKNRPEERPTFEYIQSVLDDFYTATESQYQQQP

[1] = system: MV4-11, MOLM13 and MOLM14 parent and A-419259-resistant cell populations; assay: CellTiter-Blue cell viability, parent and resistant AML populations as a group; assay type: cell-based, human
Protocol: (§1) Cell viability was assessed using the CellTiter-Blue reagent according to the manufacturer’s instructions (Promega). Fluorescence intensity, which correlates directly with viable cell number, was measured using a SpectraMax M5 microplate reader. Each experiment included three technical replicates per condition, and each experiment was repeated at least three times. […] Viability of each cell population was measured three times per week using the CellTiter-Blue assay.

MV4-11 cells (parent) = assay: CellTiter-Blue cell viability; assay type: cell-based, human; details: Homo sapiens; S11 Fig; MV4-11 Parent; read-out: PRT062607 IC50, nM (growth suppression)
Protocol: (§2) Gibco/ThermoFisher). Parental TF-1 cells also require recombinant human GM-CSF (1 ng/mL; ThermoFisher). MOLM13 and MOLM14 cells were obtained from Leibniz Institute Deutsche Sammlung von Mikroorganismen (DSMZ) and grown in RPMI 1640 medium containing 20% FBS and Antibiotic-Antimycotic. […] Cell viability was assessed using the CellTiter-Blue reagent according to the manufacturer’s instructions (Promega). Fluorescence intensity, which correlates directly with viable cell number, was measured using a SpectraMax M5 microplate reader. Each experiment included three technical replicates per condition, and each experiment was repeated at least three times.

MOLM14 cells (parent) = assay: CellTiter-Blue cell viability; assay type: cell-based, human; details: Homo sapiens, MOLM-14, S11 Fig, read-out: PRT062607 IC50, nM (growth suppression)
Protocol: as §2

MOLM13 cells (parent) = assay: CellTiter-Blue cell viability; assay type: cell-based, human; details: Homo sapiens, MOLM-13, S11 Fig, read-out: PRT062607 IC50, nM (growth suppression)
Protocol: as §2

[2] = system: MOLM14 R3 (A-419259-resistant population); assay: CellTiter-Blue cell viability; assay type: cell-based, human; details: Homo sapiens, MOLM-14, S11 Fig, read-out: PRT062607 IC50, nM (growth suppression)
Protocol: as §1

[3] = system: MOLM14 R2 (A-419259-resistant population); assay: CellTiter-Blue cell viability; assay type: cell-based, human; details: Homo sapiens, MOLM-14, S11 Fig, read-out: PRT062607 IC50, nM (growth suppression)
Protocol: as §1

[4] = system: MV4-11 R3 (A-419259-resistant population); assay: CellTiter-Blue cell viability; assay type: cell-based, human; details: Homo sapiens, S11 Fig, read-out: PRT062607 IC50, nM (growth suppression)
Protocol: as §1

[5] = system: MV4-11 R2 (A-419259-resistant population); assay: CellTiter-Blue cell viability; assay type: cell-based, human; details: Homo sapiens, S11 Fig, read-out: PRT062607 IC50, nM (growth suppression)
Protocol: as §1

[6] = system: MOLM13 R3 (A-419259-resistant population); assay: CellTiter-Blue cell viability; assay type: cell-based, human; details: Homo sapiens, MOLM-13, S11 Fig, read-out: PRT062607 IC50, nM (growth suppression)
Protocol: as §1

[7] = system: MOLM14 R1 (A-419259-resistant population); assay: CellTiter-Blue cell viability; assay type: cell-based, human; details: Homo sapiens, MOLM-14, S11 Fig, read-out: PRT062607 IC50, nM (growth suppression)
Protocol: as §1

[8] = system: myeloid Src-family kinases; parameters: method as in S. Hellwig and T. Smithgall, unpublished data; details: ref S. Hellwig and T. Smithgall, unpublished data; cited from earlier work

Km (Lyn T338F): 87.3 µM
Km (Hck T338L): 17.2 µM
Km (Hck wild-type): 26 µM
Km (Lyn wild-type): 32.8 µM
Km (Fgr T338L): 10 µM
Km (Hck T338F): 42 µM
Km (Lyn T338L): 24 µM
Km (Fgr wild-type): 17.9 µM
Km (Fgr T338F): 95.7 µM
Km (Fgr T338M): 5.3 µM
Km (Lyn T338M): 7 µM
Km (Hck T338M): 6.9 µM
SMILES: Nc1ncnc2c1ncn2[C@@H]1O[C@H](COP(=O)(O)OP(=O)(O)OP(=O)(O)O)[C@@H](O)[C@H]1O [ATP]

IC50 (MV4-11 cells (parent)): 453 ± 90.7 nM
IC50 (MOLM14 cells (parent)): 1330 ± 183 nM
IC50 (MOLM13 cells (parent)): 1380 ± 124 nM
IC50 [2]: 1200 ± 128 nM
IC50 [3]: 1640 ± 154 nM
IC50 [4]: 795 ± 128 nM
IC50 [5]: 1720 ± 93.5 nM
IC50 [6]: 1990 ± 377 nM
IC50 [7]: 2030 ± 1090 nM
SMILES: NC(=O)c1cnc(N[C@@H]2CCCC[C@@H]2N)nc1Nc1cccc(-n2nccn2)c1 [PRT062607]
IC50 ([1]; Homo sapiens, all three parent AML cell lines and their resistant counterparts, read-out: IC50 values for growth suppression): 0.5 to 2 µM
effect of added Syk inhibitor on sensitivity to A-419259 ([1]; fixed concentrations 50, 100 and 200 μM, 72 h, exception MV4-11 R2): did not affect

SMILES: CC(C)(C)c1cc(NC(=O)Nc2ccc(-c3cn4c(n3)sc3cc(OCCN5CCOCC5)ccc34)cc2)no1 [quizartinib]
inhibition of myeloid Src-family kinases [8]: does not inhibit
